According to paper PMC7680126, “Structural asymmetry governs the assembly and GTPase activity of McrBC restriction complexes” (Nature Communications, 2020):

Legend:
TgMcrB (full-length) = target: T1, TgMcrB (full-length) (Thermococcus gammatolerans, UniProt C5A3Z3); test: malachite green phosphate release; format: biochemical; conditions: 1 mM GTP, 65 °C, pH 8.0, 150 mM KCl, 5 mM MgCl2; no McrC
T1 construct: gene TGAM_0453; full-length, residues 1-613; 6xHis tag cut by HRV 3C (Gly-Pro left); E. coli BL21(DE3); hexamer

TgMcrBC complex = target: T2, TgMcrBC complex (Thermococcus gammatolerans, UniProt C5A3Z3); test: malachite green phosphate release; format: biochemical; conditions: 1 mM GTP, 0.1 μM TgMcrC, 65 °C, pH 8.0, 150 mM KCl, 5 mM MgCl2
T2 construct: gene TGAM_0453; full-length McrB (1-613) and McrC (1-458); tags cut by HRV 3C (Gly-Pro left); E. coli; with McrC, endonuclease subunit of McrBC restriction complex (5-methylcytosine restriction system component McrC)
T2 sequence (C5A3Z3 1-613): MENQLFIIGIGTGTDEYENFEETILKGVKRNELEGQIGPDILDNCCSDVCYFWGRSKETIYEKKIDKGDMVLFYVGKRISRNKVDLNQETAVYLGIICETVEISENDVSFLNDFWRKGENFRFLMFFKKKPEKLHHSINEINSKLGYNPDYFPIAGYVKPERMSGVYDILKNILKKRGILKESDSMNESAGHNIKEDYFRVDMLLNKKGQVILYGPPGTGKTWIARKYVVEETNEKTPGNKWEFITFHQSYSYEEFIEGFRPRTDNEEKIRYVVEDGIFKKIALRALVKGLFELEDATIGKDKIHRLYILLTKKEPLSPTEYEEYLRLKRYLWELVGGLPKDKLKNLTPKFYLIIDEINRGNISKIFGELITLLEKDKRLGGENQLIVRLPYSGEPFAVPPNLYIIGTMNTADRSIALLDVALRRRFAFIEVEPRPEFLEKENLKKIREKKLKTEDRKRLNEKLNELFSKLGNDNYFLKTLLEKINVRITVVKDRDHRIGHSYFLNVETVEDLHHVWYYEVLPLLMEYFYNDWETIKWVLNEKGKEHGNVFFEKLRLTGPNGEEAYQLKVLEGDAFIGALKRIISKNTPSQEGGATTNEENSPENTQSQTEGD
T2 sequence (C5A3Z2 1-458 partner): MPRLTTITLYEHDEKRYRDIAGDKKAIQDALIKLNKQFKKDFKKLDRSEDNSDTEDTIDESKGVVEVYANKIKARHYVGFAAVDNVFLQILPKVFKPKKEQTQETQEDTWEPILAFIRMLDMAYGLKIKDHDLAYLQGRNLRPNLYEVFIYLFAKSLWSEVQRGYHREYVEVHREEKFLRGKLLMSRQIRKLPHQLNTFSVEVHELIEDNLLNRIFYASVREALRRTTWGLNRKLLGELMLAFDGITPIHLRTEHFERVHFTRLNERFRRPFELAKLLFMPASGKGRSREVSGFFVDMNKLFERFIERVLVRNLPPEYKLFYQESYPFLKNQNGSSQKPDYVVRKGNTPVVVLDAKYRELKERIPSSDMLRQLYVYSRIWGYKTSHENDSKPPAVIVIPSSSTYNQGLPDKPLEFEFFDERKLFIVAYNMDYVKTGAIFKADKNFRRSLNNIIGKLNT

Compound: Nc1nc2c(ncn2[C@@H]2O[C@H](COP(=O)(O)OP(=O)(O)OP(=O)(O)O)[C@@H](O)[C@H]2O)c(=O)[nH]1 [GTP]
- basal GTPase activity (TgMcrB (full-length)): Alanine substitutions at Asn410 and Asp413 in full-length TgMcrB abolish both basal and McrC-stimulated GTPase activity
- McrC-stimulated GTPase activity (TgMcrBC complex): Purified TgMcrC similarly stimulates TgMcrB’s basal GTPase activity
